# Source: paper PMC7377239, “Cardiovascular Effects of Polychlorinated Biphenyls and Their Major Metabolites” (Environmental Health Perspectives, 2020)
# Structures can show the parent of a compound that is named as a salt. Where two headings read alike, the source gives them in different places.
# Tested on: iCell cardiomyocytes (human iPSC-derived cardiomyocytes)
# Assay: High-content imaging of cytotoxicity and mitochondrial integrity in iPSC-CMs
# Format: cell-based
# Conditions: Homo sapiens; for viability at 0.01 µM / activity at 0.01 µM / viability at 0.1 µM / activity at 0.1 µM / viability at 1 µM / activity at 1 µM / viability at 10 µM / activity at 10 µM / viability at 100 µM / activity at 100 µM: 0.00 µM = 100.00; for viability at 0.1 µM / activity at 0.1 µM: 0.10 µM
# Method in brief: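 Human iPSC-derived cardiomyocytes were seeded on gelatin-coated 384-well plates at 5,000 cells per well and maintained for 12 d. Test chemicals were added as 10μL of 5× solutions to final concentrations of 0.01 to 100μM. Cells were stained with Hoechst 33342 and MitoTracker™ Orange, fixed in formaldehyde, and imaged by confocal high-content microscopy at 10× magnification.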
# [1] = Cardiomyocyte, 1.5 h, read-out: cm.cam.90min
# [2] = Cardiomyocyte, 1.5 h, read-out: cm.mii.90min
# [3] = Cardiomyocyte, 1.5 h, read-out: cm.mito.90min
# [4] = Cardiomyocyte, 1.5 h, read-out: cm.tc.90min
# [5] = Cardiomyocyte, 24 h, read-out: cm.cam.24hrs
# [6] = Cardiomyocyte, 24 h, read-out: cm.mii.24hrs
# [7] = Cardiomyocyte, 24 h, read-out: cm.mito.24hrs
# [8] = Cardiomyocyte, 24 h, read-out: cm.tc.24hrs
# [9] = iPSC-CM, 1.5 h, iPSC-CM, read-out: cm.cam.90min POD
# [10] = iPSC-CM, 1.5 h, iPSC-CM, read-out: cm.mii.90min POD
# [11] = iPSC-CM, 1.5 h, iPSC-CM, read-out: cm.mito.90min POD
# [12] = iPSC-CM, 1.5 h, iPSC-CM, read-out: cm.tc.90min POD
# [13] = iPSC-CM, 24 h, iPSC-CM, read-out: cm.cam.24hrs POD
# [14] = iPSC-CM, 24 h, iPSC-CM, read-out: cm.mii.24hrs POD
# [15] = iPSC-CM, 24 h, iPSC-CM, read-out: cm.mito.24hrs POD
# [16] = iPSC-CM, 24 h, iPSC-CM, read-out: cm.tc.24hrs POD
compound,measurement,setting,value
O=S(=O)(O)Oc1cc(Cl)ccc1-c1ccccc1 [2-yl PCB 3 sulfate],viability at 0.01 µM,[1],88.1%
same,activity at 0.01 µM,[2],116%
same,activity at 0.01 µM,[3],87.6%
same,viability at 0.01 µM,[4],88.3%
same,viability at 0.1 µM,[1],98.3%
same,activity at 0.1 µM,[2],105%
same,activity at 0.1 µM,[3],98.4%
same,viability at 0.1 µM,[4],98.4%
same,viability at 1 µM,[1],105%
same,activity at 1 µM,[2],88.6%
same,activity at 1 µM,[3],105%
same,viability at 1 µM,[4],105%
same,viability at 10 µM,[1],100%
same,activity at 10 µM,[2],96.5%
same,activity at 10 µM,[3],101%
same,viability at 10 µM,[4],101%
same,viability at 100 µM,[1],104%
same,activity at 100 µM,[2],81%
same,activity at 100 µM,[3],105%
same,viability at 100 µM,[4],105%
same,viability at 0.01 µM,[5],99.2%
same,activity at 0.01 µM,[6],94.5%
same,activity at 0.01 µM,[7],100%
same,viability at 0.01 µM,[8],101%
same,viability at 0.1 µM,[5],101%
same,activity at 0.1 µM,[6],102%
same,activity at 0.1 µM,[7],101%
same,viability at 0.1 µM,[8],101%
same,viability at 1 µM,[5],101%
same,activity at 1 µM,[6],102%
same,activity at 1 µM,[7],103%
same,viability at 1 µM,[8],101%
same,viability at 10 µM,[5],102%
same,activity at 10 µM,[6],85.7%
same,activity at 10 µM,[7],102%
same,viability at 10 µM,[8],102%
same,viability at 100 µM,[5],98.3%
same,activity at 100 µM,[6],91.6%
same,activity at 100 µM,[7],99.6%
same,viability at 100 µM,[8],98.5%
same,minimal effective concentration,[9],100 µM
same,minimal effective concentration,[10],7.39 µM
same,minimal effective concentration,[11],100 µM
same,minimal effective concentration,[12],100 µM
same,minimal effective concentration,[13],100 µM
same,minimal effective concentration,[14],100 µM
same,minimal effective concentration,[15],100 µM
same,minimal effective concentration,[16],100 µM
Oc1ccc(-c2cccc(Cl)c2)cc1Cl [4-OH PCB11],viability at 0.01 µM,[1],94.9%
same,activity at 0.01 µM,[2],115%
same,activity at 0.01 µM,[3],94.7%
same,viability at 0.01 µM,[4],94.7%
same,viability at 0.1 µM,[1],95%
same,activity at 0.1 µM,[2],108%
same,activity at 0.1 µM,[3],95%
same,viability at 0.1 µM,[4],95%
same,viability at 1 µM,[1],99.1%
same,activity at 1 µM,[2],113%
same,activity at 1 µM,[3],98.6%
same,viability at 1 µM,[4],98.8%
same,viability at 10 µM,[1],106%
same,activity at 10 µM,[2],93.6%
same,activity at 10 µM,[3],106%
same,viability at 10 µM,[4],106%
same,viability at 100 µM,[1],0.0234%
same,activity at 100 µM,[2],157%
same,activity at 100 µM,[3],0.0462%
same,viability at 100 µM,[4],0.09%
same,viability at 0.01 µM,[5],90.8%
same,activity at 0.01 µM,[6],101%
same,activity at 0.01 µM,[7],86.2%
same,viability at 0.01 µM,[8],90.8%
same,viability at 0.1 µM,[5],100%
same,activity at 0.1 µM,[6],111%
same,activity at 0.1 µM,[7],97.6%
same,viability at 0.1 µM,[8],99.9%
same,viability at 1 µM,[5],98.4%
same,activity at 1 µM,[6],100%
same,activity at 1 µM,[7],96.4%
same,viability at 1 µM,[8],98.7%
same,viability at 10 µM,[5],93.1%
same,activity at 10 µM,[6],96.5%
same,activity at 10 µM,[7],90.8%
same,viability at 10 µM,[8],93.5%
same,viability at 100 µM,[5],0.0471%
same,activity at 100 µM,[6],1.84%
same,activity at 100 µM,[7],0.024%
same,viability at 100 µM,[8],0.11%
same,minimal effective concentration,[9],27.7 µM
same,minimal effective concentration,[10],32.7 µM
same,minimal effective concentration,[11],40.1 µM
same,minimal effective concentration,[12],36.2 µM
same,minimal effective concentration,[13],8.57 µM
same,minimal effective concentration,[14],43.2 µM
same,minimal effective concentration,[15],7.94 µM
same,minimal effective concentration,[16],8.62 µM
"Clc1cccc(-c2cccc(Cl)c2)c1 [PCB 11, 3,3′-Dichlorobiphenyl]",minimal effective concentration,"Cardiomyocyte, 1.5 h, cardiomyocytes (cm), cam, 90 min, read-out: POD cm.cam.90min",18.6 µM
same,minimal effective concentration,"Cardiomyocyte, 1.5 h, cardiomyocytes (cm), mii, 90 min, read-out: POD cm.mii.90min",12.4 µM
same,minimal effective concentration,"Cardiomyocyte, 1.5 h, cardiomyocytes (cm), mito, 90 min, read-out: POD cm.mito.90min",14.2 µM
same,minimal effective concentration,"Cardiomyocyte, 1.5 h, cardiomyocytes (cm), tc, 90 min, read-out: POD cm.tc.90min",16.7 µM
same,minimal effective concentration,"Cardiomyocyte, 24 h, cardiomyocytes (cm), cam, 24 hrs, read-out: POD cm.cam.24hrs",35.2 µM
same,minimal effective concentration,"Cardiomyocyte, 24 h, cardiomyocytes (cm), mii, 24 hrs, read-out: POD cm.mii.24hrs",9.6 µM
same,minimal effective concentration,"Cardiomyocyte, 24 h, cardiomyocytes (cm), mito, 24 hrs, read-out: POD cm.mito.24hrs",33.1 µM
same,minimal effective concentration,"Cardiomyocyte, 24 h, cardiomyocytes (cm), tc, 24 hrs, read-out: POD cm.tc.24hrs",35.1 µM
"Oc1ccc(O)c(-c2ccc(Cl)cc2)c1 [2',5'-DiOH PCB3]",viability at 0.01 µM,[1],104%
same,activity at 0.01 µM,[2],107%
same,activity at 0.01 µM,[3],103%
same,viability at 0.01 µM,[4],104%
same,viability at 0.1 µM,[1],94.2%
same,activity at 0.1 µM,[2],114%
same,activity at 0.1 µM,[3],93.9%
same,viability at 0.1 µM,[4],94.3%
same,viability at 1 µM,[1],100%
same,activity at 1 µM,[2],108%
same,activity at 1 µM,[3],100%
same,viability at 1 µM,[4],100%
same,viability at 10 µM,[1],101%
same,activity at 10 µM,[2],84.5%
same,activity at 10 µM,[3],99.4%
same,viability at 10 µM,[4],101%
same,viability at 100 µM,[1],0%
same,activity at 100 µM,[2],0%
same,activity at 100 µM,[3],0%
same,viability at 100 µM,[4],0%
same,viability at 0.01 µM,[5],84.9%
same,activity at 0.01 µM,[6],104%
same,activity at 0.01 µM,[7],82.4%
same,viability at 0.01 µM,[8],85.7%
same,viability at 0.1 µM,[5],100%
same,activity at 0.1 µM,[6],110%
same,activity at 0.1 µM,[7],101%
same,viability at 0.1 µM,[8],100%
same,viability at 1 µM,[5],97.7%
same,activity at 1 µM,[6],98.1%
same,activity at 1 µM,[7],94.2%
same,viability at 1 µM,[8],97.9%
same,viability at 10 µM,[5],45.5%
same,activity at 10 µM,[6],157%
same,activity at 10 µM,[7],40.2%
same,viability at 10 µM,[8],45.4%
same,viability at 100 µM,[5],0%
same,activity at 100 µM,[6],0%
same,activity at 100 µM,[7],0%
same,viability at 100 µM,[8],0%
same,minimal effective concentration,[9],32.4 µM
same,minimal effective concentration,[10],7.9 µM
same,minimal effective concentration,[11],12.7 µM
same,minimal effective concentration,[12],33.4 µM
same,minimal effective concentration,[13],1.84 µM
same,minimal effective concentration,[14],2.28 µM
same,minimal effective concentration,[15],0.97 µM
same,minimal effective concentration,[16],1.88 µM
